From patent US10442779B2, “Compositions and methods for treating Friedreich's ataxia” (Fratagene Therapeutics S.R.L., priority 2014, dated 2019)

Legend:
[1] = biological target: T1, frataxin in FRDA 203 lymphoblast cell line (Homo sapiens, UniProt Q16595); assay: Frataxin accumulation in FRDA 203 patient-derived lymphoblasts (western blot); assay type: cell-based; details: FRDA 203 lymphoblasts, 1 μM, 4 days, vs DMSO; five experiments, P<0.05
T1 construct: GM16798; host or cells: FRDA 798, FRDA 214 and FRDA 203 patient-derived lymphoblasts
T1 sequence (Q16595 42-210): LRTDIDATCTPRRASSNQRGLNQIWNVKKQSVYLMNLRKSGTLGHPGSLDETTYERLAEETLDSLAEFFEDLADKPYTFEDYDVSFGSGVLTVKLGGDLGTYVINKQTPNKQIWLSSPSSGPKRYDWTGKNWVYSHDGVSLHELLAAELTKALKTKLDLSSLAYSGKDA
Protocol: The efficacy of a specific compound, UCM166, was tested in FRDA patients-derived cells. (The structure of UCM166 is as shown previously.) FRDA patient-derived lymphoblast cell line FRDA 203 was cultured in the presence of 1 μM of UCM166 or DMSO alone (as a control) for 4 days. Total cell extracts were resolved on SDS-PAGE and analyzed in a western blot with anti-frataxin antibody, or anti-tubulin, as a loading control. FIG. 7 represents the relative frataxin abundance as quantified by densitometric analysis and normalized with tubulin levels. The data represent the mean±S.E.M. from five different independent experiments. P-value was calculated with Student's t-test and was statistically significant (**P<0.05) compared to non-treated conditions.

[2] = biological target: T2, frataxin in FRDA 798 and FRDA 214 lymphoblasts (Homo sapiens, UniProt Q16595); assay: Frataxin accumulation in FRDA patient-derived lymphoblasts FRDA 798 and FRDA 214 (western blot); assay type: cell-based; details: for mature frataxin accumulation in FRDA patient cells: FRDA 798 and FRDA 214 lymphoblasts, 10 μM, 5 days, vs vehicle
T2 construct: GM16798; host or cells: FRDA 798, FRDA 214 and FRDA 203 patient-derived lymphoblasts
T2 sequence (Q16595 42-210): T1 sequence (Q16595 42-210)
Protocol: (§1) Cell culture and transfections. Human embryonic kidney HEK-293 cells were cultured in Dulbecco's modified Eagle's medium (DMEM) supplemented with 10% fetal bovine serum (FBS). HEK-293 cells were transfected using Lipofectamine 2000 reagents (Invitrogen), according to the manufacturer's instructions. Cells were plated on 6 cm dishes and transfected with 8 μg of total DNA (4 μg of pIRES-frataxin and 4 μg of HA-Ub). The day after transfection, cells were treated for 24 h with 10 μM UCM together with 10 μM proteasome inhibitor MG132 and 50 ng/ml deubiquitinating enzyme (DUB) inhibitor Ub-aldehyde. HEK-293 Flp-In cells (Invitrogen) are HEK-293 variants allowing the stable and isogenic integration and expression of a transfected gene. The HEK-293 clones stably expressing frataxin^1-210 or frataxin^K147R were previously described (Condo et al., 2007; Rufini et al., 2011). FRDA 214 (GM16214) and FRDA 798 (GM16798) lymphoblasts, from clinically affected FRDA patients, as well as FRDA 215 (GM16215) and FRDA 241 (GM16241) lymphoblasts, from the correspondent heterozygous clinically unaffected sibling, were obtained from Coriell Cell Repositories (Camden, N.J., USA) and were cultured in RPMI supplemented with 15% FBS.
Immunoblotting. Total cell extracts were prepared in IP buffer (50 mM Tris-HCl, pH 7.5, 150 mM NaCl, 1% Nonidet P-40, 5 mM EDTA, 5 mM EGTA) supplemented with Complete protease inhibitor cocktail (Roche Diagnostics). […] Protein extract (50 μg) was separated by 12% SDS-PAGE, blotted onto a nitrocellulose membrane and detected with specific antibodies. The immunoreactive bands were detected by ECL (GE Healthcare) and imaged with a ChemiDoc XRS system (Bio-Rad Laboratories). […]
UCM compounds promote frataxin accumulation in FRDA cells and rescue the aconitase defect. […] Frataxin levels were quantitated by western blot analysis on whole cell extracts using anti-frataxin antibody, or anti-tubulin, as a loading control. The relative frataxin abundance was quantitated by densitometric analysis and normalized with tubulin levels. […]

[3] = biological target: T3, frataxin^1-210 in HEK-293 Flp-In cells (293-frataxin) (Homo sapiens, UniProt Q16595); assay: Frataxin precursor / mature frataxin accumulation in 293-frataxin cells (western blot); assay type: cell-based; details: 10 μM; for frataxin precursor accumulation: 24 hrs, compared with UCM2 and MG132; for mature frataxin accumulation: 72 hrs (3 days)
T3 construct: 293 Flp-In cells stably expressing frataxin^1-210 were treated for 24 hrs; expressed in transfected cells
T3 sequence (Q16595 42-210): T1 sequence (Q16595 42-210)
Protocol: as §1
Immunoblotting. Total cell extracts were prepared in IP buffer (50 mM Tris-HCl, pH 7.5, 150 mM NaCl, 1% Nonidet P-40, 5 mM EDTA, 5 mM EGTA) supplemented with Complete protease inhibitor cocktail (Roche Diagnostics). For in vivo detection of ubiquitin conjugates, 10 μM MG132, 50 ng/ml Ub-aldehyde and 2 mM NEM were added to the lysis buffer. Protein extract (50 μg) was separated by 12% SDS-PAGE, blotted onto a nitrocellulose membrane and detected with specific antibodies. The immunoreactive bands were detected by ECL (GE Healthcare) and imaged with a ChemiDoc XRS system (Bio-Rad Laboratories). Densitometric analysis was performed using the ImageLab 4.1 Software (Bio-Rad Laboratories).
UCMs increase frataxin levels. To validate UCM activity, UCMs were tested their effect in human HEK-293 cells stably expressing single copy frataxin (293-frataxin). These cells allow the detection of all forms of frataxin, including the frataxin precursor. Compounds that were able to enhance frataxin precursor levels were synthesized, further chemically modified according to the docking model and tested again in 293-frataxin. Approximately 200 new candidate UCMs were tested in functional assays. Through this iterative process, new UCMs that promote frataxin precursor with surprising efficiency were identified.
293 Flp-In cells stably expressing frataxin^1-210 were treated for 24 hrs with 10 μM of the indicated UCM or 10 μM MG132 (MG). Total cell extracts were resolved on SDS-PAGE and analyzed with anti-frataxin antibody, or anti-tubulin, as a loading control. Pre: precursor; tub: tubulin.
293 Flp-In cells stably expressing frataxin^1-210 were treated for 72 hrs with 10 μM of the indicated UCM. Total cell extracts were resolved on SDS-PAGE and analyzed with anti-frataxin antibody, or anti-tubulin, as a loading control. Pre: precursor, int: intermediate, mat: mature; tub: tubulin.

frataxin ubiquitination = biological target: T4, frataxin ubiquitination (Homo sapiens, UniProt Q16595); assay: In vivo (in-cell) frataxin ubiquitination assay in HEK-293 cells co-transfected with HA-Ub and frataxin; assay type: cell-based; details: HEK-293, HA-Ub + frataxin^1-210, 10 μM UCM, with MG132 and Ub-aldehyde
T4 construct: 293 cells were transiently co-transfected with HA-Ub and frataxin^1-210; expressed in transfected cells; host or cells: HEK-293 cells, transient transfection (pIRES-frataxin plus HA-Ub)
T4 sequence (Q16595 42-210): T1 sequence (Q16595 42-210)
Protocol: Cell culture and transfections. Human embryonic kidney HEK-293 cells were cultured in Dulbecco's modified Eagle's medium (DMEM) supplemented with 10% fetal bovine serum (FBS). HEK-293 cells were transfected using Lipofectamine 2000 reagents (Invitrogen), according to the manufacturer's instructions. Cells were plated on 6 cm dishes and transfected with 8 μg of total DNA (4 μg of pIRES-frataxin and 4 μg of HA-Ub). The day after transfection, cells were treated for 24 h with 10 μM UCM together with 10 μM proteasome inhibitor MG132 and 50 ng/ml deubiquitinating enzyme (DUB) inhibitor Ub-aldehyde. […]
Immunoblotting. […] Protein extract (50 μg) was separated by 12% SDS-PAGE, blotted onto a nitrocellulose membrane and detected with specific antibodies. The immunoreactive bands were detected by ECL (GE Healthcare) and imaged with a ChemiDoc XRS system (Bio-Rad Laboratories). […]
UCMs prevent frataxin ubiquitination. To test whether the new compounds promote frataxin accumulation by preventing its ubiquitin/proteasome-dependent degradation, their impact on frataxin ubiquitination was evaluated. […] The ubiquitination status of frataxin was evaluated by SDS-PAGE of total cell lysates and anti-frataxin immunoblotting. […] Ubiquitination level was measured as the ratio between the levels of ubiquitinated frataxin and frataxin precursor. […]

[4] = biological target: T5, Human recombinant frataxin precursor (aa 1-210) (Homo sapiens, UniProt Q16595); assay: Steady-state Trp fluorescence binding of UCMs to recombinant frataxin precursor; details: for change of protein Trp fluorescence (ΔF/F0): 2 μM frataxin precursor, ligand 0.5 to 25 μM, 20° C; for half-saturation binding constant, L1/2: 2 μM native frataxin precursor, numbers only in FIG. 5
T5 construct: Human recombinant frataxin precursor (aa 1-210) was expressed and purified; purchased GenScript Corp., N.J., USA
T5 sequence (Q16595 1-210): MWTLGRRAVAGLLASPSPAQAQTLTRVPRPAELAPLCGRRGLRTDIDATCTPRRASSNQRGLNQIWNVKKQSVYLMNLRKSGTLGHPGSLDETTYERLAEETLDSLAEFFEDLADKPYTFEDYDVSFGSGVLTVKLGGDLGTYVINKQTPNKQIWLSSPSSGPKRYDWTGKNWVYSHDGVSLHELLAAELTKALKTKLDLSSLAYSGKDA
Protocol: Steady-state fluorescence measurements. Human recombinant frataxin precursor (aa 1-210) was expressed and purified by GenScript Corp., N.J., USA. Steady-state fluorescence spectra were recorded at 20° C. using an ISS PC1 fluorometer (Iss Inc, Champain, Ill. Usa). The affinity of frataxin for the ligands studied in this paper was determined by monitoring the decrease in Trp fluorescence upon the addition of these molecules to solutions. The concentration of the protein was 2 μM while the concentration of the ligands varied from 0.5 to 25 μM. At the excitation wavelength of 280 nm, emission spectra were recorded between 290 and 440 nm, using a 4×4 mm path-length quartz fluorescence microcuvette (Hellma GmbH & Co., Müllheim/Baden, Germany). The spectra were corrected using an instrument correction curve obtained with standard fluorescent compounds such as N-acetyl tryptophanamide (NATA). All measurements were also corrected for the inner-filter effect. To simulate the absorption of ligand molecules at the excitation and the emission wavelengths, two cuvettes (2 mm optical length), containing a solution of ligands in buffer, were placed along the excitation and emission pathways. The fluorescence of NATA was thus measured varying the concentration of quencher and four correction curves (one for each ligand) were obtained.
Data were then plotted as fractional loss of Trp fluorescence (ΔF/F0) versus ligand concentration. Experimental data were analyzed by nonlinear regression through a hyperbolic binding isotherm, using the Kaleidagraph program (Synergy Software).
UCMs interact with frataxin. Ubiquitin-competing molecules were selected through structure-based virtual screening for their potential ability to interact with frataxin on its ubiquitination site. Since they are in fact able to prevent frataxin ubiquitination and to interfere with its K147-dependent degradation, confirmation of their ability to physically interact with frataxin was sought. Therefore, the interaction propensities of frataxin with these molecules were investigated by fluorescence spectroscopy through the analysis of the changes of the signal of the protein tryptophan residues in the presence of the different compounds.
The graphs represent the fractional loss of the protein fluorescence intensity (ΔF/F0), in the presence of different concentration of ligand, versus the ratio between ligand and frataxin. The interaction with UCM53 was also analyzed in the case of frataxin precursor previously denaturated in 3M guanidinium hydrochloride (lower right panel). The half-saturation binding constant, L1/2 (μM), of frataxin precursor with different UCM is indicated in each panel.

[5] = system: aconitases activity in FRDA 214 lymphoblasts; assay: Aconitase activity rescue in FRDA lymphoblasts; assay type: cell-based, human; details: 5 days treatment
Protocol: Enzyme assays. For determinations of aconitases and citrate synthase activity, FRDA lymphoblasts were washed twice with ice-cold Dulbecco's Phosphate Buffered Saline (DPBS) and lysed in CelLytic M buffer (Sigma-Aldrich) supplemented with Complete protease inhibitor cocktail EDTA-free (Roche) and 2 mM trisodium citrate. Citrate was included to prevent the inactivation of iron-sulfur cluster of aconitases. Total aconitase activity was measured spectrophotometrically at 340 nm using the BIOXYTECH Aconitase-340™ Assay (OxisResearch™ 21041). The assay reactions, containing 150 μg of cell extract, were performed following the supplier's procedure, with the exception of temperature incubation at 25° C. Citrate synthase activity was assessed using 15 μg of cell extract with the Citrate Synthase Assay Kit (Sigma-Aldrich CS0720).
The aconitase activities were normalized with respect to citrate synthase ratios; one milliunit of enzyme was defined as the amount of protein that converted 1 nmol of NADP^+ in 1 min at 25° C.
Moreover, to validate a functional recovery of frataxin levels, rescue of cellular aconitases activity was evaluated in FRDA cells upon treatment with UCMs. […] Aconitases activity in cells derived from an unaffected carrier sibling (FRDA 215) is also shown for comparison.

SMILES | relative frataxin abundance (normalized with tubulin) [1] | mature frataxin accumulation in FRDA patient cells [2] | frataxin precursor accumulation [3] | mature frataxin accumulation [3] | frataxin ubiquitination (ratio of ubiquitinated frataxin to frataxin precursor) (frataxin ubiquitination) | change of protein Trp fluorescence (ΔF/F0) [4] | half-saturation binding constant, L1/2 [4] | fluorescence changes with denatured protein ([4]; frataxin precursor denaturated in 3M guanidinium hydrochloride) | aconitases activity (normalized to citrate synthase) [5] | toxicity in long-term cell treatment ([2]; FRDA lymphoblasts, long-term (5 days) treatment)
COc1ccccc1C(=O)N/N=C(\C)c1ccc2c(c1)Nc1ccccc1S2 [UCM166] | efficiently promotes frataxin accumulation | – | – | – | – | – | – | – | – | –
C/C(=N\NC(=O)c1ccc(C)cc1C)c1ccc2c(c1)Nc1ccccc1S2 [UCM53] | – | significant accumulation of mature frataxin | induce frataxin precursor accumulation | accumulation of mature frataxin | significantly abrogate frataxin ubiquitination | strong fluorescence changes | lowest binding affinity constants | completely lost | – | –
C/C(=N\NC(=O)c1ccccc1)c1ccc2c(c1)Nc1ccccc1S2 [UCM108] | – | significant accumulation of mature frataxin | induce frataxin precursor accumulation | accumulation of mature frataxin | – | strong fluorescence changes | lowest binding affinity constants | – | significant increase in aconitases activity | –
C/C(=N\NC(=O)c1cc2ccccc2cc1O)c1ccc2c(c1)Nc1ccccc1S2 [UCM71] | – | – | induce frataxin precursor accumulation | accumulation of mature frataxin | significantly abrogate frataxin ubiquitination | – | – | – | – | toxicity over a long-term treatment
